From patent US20110081675A1, “Metabolic Biomarkers Of Drug-Induced Cardiotoxicity” (WISCONSIN ALUMNI RESEARCH FOUNDATION, priority 2009, published 2011)

Tested on: human cardiomyocytes (Celprogen 36044-15at)
Test: LC-ESI-TOF-MS metabolomics of extracellular media of drug-treated human cardiomyocytes (Tables 2A-2C)
Type: cell-based
Settings: 15uM tamoxifen
Description: Data for statistical analysis were extracted from chromatograms using the Agilent Mass Hunter software (Product No. G3297AA, Agilent Technologies, Inc., Santa Clara, Calif.); it will be understood that alternative statistical analysis methods can be used. Masses were binned together if they were within 10 ppm and eluted within a 2 minutes retention time window. A binned mass was considered to be the same molecule across different LC-ESI-TOF-MS analyses (referred to herein as an “exact mass,” which will be understood to be ±10 ppm). Binning of the data is required for statistical analysis and comparison of masses across the entire experiment. If multiple peaks with the same mass at the same retention time within a single sample were detected by Mass Hunter, they were averaged to assist data analysis. Masses lacking a natural isotopic distribution or with an absolute height of less than 1000 were removed from the data prior to analysis. It would be understood that the results from this assay provide relative values that are assessed according to annotated values within 10 ppm to provide an identity for the molecular weight detected. Thus, a mass shift within 10 ppm is considered consistent with determining the identity of a specific cellular metabolite previously annotated due to differences in ionization source and instrumentation, e.g. between different experiments or using different instruments.
As used herein, a mass was considered to be the same across LC/ESI-TOF-MS runs using a simple algorithm that first sorts the data by mass and retention time. […] If a series of measurements fit this definition it was considered to be from the same compound. If either the mass or the retention time varied by more than the limits listed above it was considered to be a different compound and given a new unique designation.
The data from the most reproducible mass features was log base 2 transformed and median centered prior to statistical analysis. […] To test the null hypothesis a one way permutation based t-test assuming a normal approximation of the conditional distribution was used and implement using the Conditional Inference Procedures in a Permutation Test Framework (Coin) library, a contributed package of programming code. Statistics tests were performed without replacement of missing values decrease the degrees of freedom rather than imputing missing values. […] False discovery rates (FDR) were controlled using the Q value estimator (Storey et al., 2003, Proc Natl Acad. Sci., 100:9440-5) and implemented using the qvalue library in R (Dabney et al., 2003, qvalue: Q-value estimation for false discovery rate control. R package version 1.10.0., www.CRAN.R-project.org).
The extracellular media from treated and untreated cells was processed as described in Cezar et al., (2007, Stem Cells Development 16: 869-882, this publication is incorporated by reference), for extraction of low molecular weight molecules (<3 kD) for metabolomics analysis. Extracellular low molecular weight molecule preparations were separated by liquid chromatography followed by electrospray ionization time of flight (LC-ESI-TOF-MS) mass spectrometry for ionization and detection of the full spectra of low molecular weight molecules present in each sample. More specifically, the samples were separated using the ESI_Luna_HILIC—95_t—06OACN—16 min method (HILIC chromatography). Statistical differences were inferred by subsequent bioinformatics and in silico mapping of deisotoped ESI-TOF-MS mass features as described below (also provided in Cezar et al. (2007, id.)).
Briefly, ionization (100 m/z-1500 m/z) was acquired on an Agilent 6520 Accurate-Mass Q-TOF in extended dynamic range and positive mode. Mass features were generated using two independent methods. First MassHunter Qualitative Analysis was used to generate mass features using the Molecular Feature Extraction algorithm (MFE).

Q: Which results are given for `CC/C(=C(\c1ccccc1)c1ccc(OCCN(C)C)cc1)c1ccccc1` [Tamoxifen]?
A: tamfold (feature cpdID 36, neutral mass 101.1204, RT 0.720145, Triethylamine or Hexylamine): 1.889 fold; tamfold (feature cpdID 8902, neutral mass 276.1256, RT 8.733378, no hit): 2.064 fold; tamfold (feature cpdID 11232, neutral mass 311.1029, RT 7.400847, p-Glucosyloxymandelonitrile or (S)-4-Hydroxymandelonitrile beta-D-glucoside): 1.708 fold; tamfold (feature cpdID 14190, neutral mass 356.253, RT 1.103957, HMDB04239, 13,14-dihydro PGE1 or Prostaglandin F1alpha): 11.4 fold; tamfold (feature cpdID 15112, neutral mass 372.0557, RT […], no hit): −1.266 fold; tamfold (feature cpdID 16504, neutral mass 393.0913, RT 7.25538, no hit): 1.21 fold; tamfold (feature cpdID 16939, neutral mass 400.2796, RT 1.108613, 7-Ketocholesterol): 10.16 fold; tamfold (feature cpdID 17096, neutral mass 403.1776, RT 6.2306, no hit): −1.832 fold; tamfold (feature cpdID 19500, neutral mass 444.3034, RT 1.106333, […]-Dihydroxyvitamin D3-26,23-lactone): 15.8 fold; tamfold (feature cpdID 19704, neutral mass 448.1344, RT 7.184483, no hit): 1.975 fold; tamfold (feature cpdID 21926, neutral mass 488.3323, RT 1.106573, no hit): 7.564 fold; tamfold (feature cpdID 23163, neutral mass 516.1241, RT 7.217222, Formononetin 7-O-glucoside-6″-O-malonate, Isochlorogenic acid b or 13-Dicaffeoylquinic acid): 1.75 fold; tamfold (feature cpdID 24142, neutral mass 538.2779, RT 0.783395, no hit): 2.706 fold; tamfold (feature cpdID 25561, neutral mass 575.2051, RT 7.271724, no hit): −1.008 fold; tamfold (feature cpdID 25601, neutral mass 576.3861, RT 1.10751, 3-Hexaprenyl-4-hydroxy-5-methoxybenzoic acid): 5.478 fold; tamfold (feature cpdID 27363, neutral mass 620.4117, RT 1.108317, no hit): 3.46 fold; tamfold (feature cpdID 28720, neutral mass 661.1924, RT 6.495524, no hit): 1.185 fold; tamfold (feature cpdID 29101, neutral mass 672.1828, RT 6.528464, no hit): 2.364 fold; tamfold (feature cpdID 29227, neutral mass 676.1781, RT 1.298314, no hit): −1.514 fold; tamfold (feature cpdID 31637, neutral mass 744.1091, RT 1.26415, no hit): 1.02 fold; tamfold (feature cpdID 33162, neutral mass 791.2316, RT 6.496594, no hit): 1.968 fold; tamfold (feature cpdID 37905, neutral mass 932.2608, RT 6.542554, no hit): 1.8 fold; tamfold (feature cpdID 37938, neutral mass 933.3726, RT 8.330596, no hit): 1.939 fold; tamfold (feature cpdID 42137, neutral mass 1122.172, RT 1.256606, no hit): −1.752 fold; tamfold (feature cpdID 45209, neutral mass 1300.402, RT 6.501484, no hit): 1.731 fold; tamfold (feature cpdID 45486, neutral mass 1322.385, RT 6.518707, no hit): 1.765 fold
